Measured values: US20140187625A1, “RODENTICIDAL COMPOUND, COMPOSITION INCLUDING SAME AND USE FOR COMBATING RODENT PESTS” (priority 2011, published 2014)
Like-named read-outs stand apart in the source and are kept apart here.

Biological target: T1, activity with respect to vitamin K (vitamin K epoxide substrate), microsomal liver fractions from sensitive rats (Rattus norvegicus, UniProt Q6TEK4)
T1 construct: with 0.5 to 1 mg of microsomal liver fractions from sensitive rats; from tissue; host or cells: rat liver microsomes (sensitive rats)
T1 sequence (Q6TEK4 1-161): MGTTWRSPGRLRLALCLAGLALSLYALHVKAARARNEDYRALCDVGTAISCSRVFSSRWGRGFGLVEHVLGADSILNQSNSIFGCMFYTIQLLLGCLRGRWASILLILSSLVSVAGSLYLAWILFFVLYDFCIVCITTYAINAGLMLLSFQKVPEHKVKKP
Experiment: Inhibition of vitamin K epoxide reduction (activity with respect to vitamin K) in rat liver microsomes, IC50
Format: biochemical
Procedure: The operating protocol is the following. Incubation is carried out in a 200 mM Hepes buffer (pH 7.4) containing 150 mM KCl in the presence of a reducing agent, dithiothreitol (1 mM): • with 0.5 to 1 mg of microsomal liver fractions from sensitive rats, and the reaction substrate, • with […] of vitamin K epoxide in a final volume of 1 ml.
The mixture is incubated for 30 minutes at 37° C. and the reaction is stopped by addition of 4 ml of a mixture of isopropanol/hexane (1:1).
The reaction mixture is then centrifuged for 10 minutes at 3,000 revolutions per minute.
The organic phase is collected and then evaporated to dryness under nitrogen.
The dry residue is immediately taken up in 200 μl of isopropanol.
The vitamin K is then analyzed. The products are separated by reverse chromatography on a C8 column using a mobile phase composed of methanol and acetic acid under isocratic conditions (1 ml/min) at 45° C. Detection of the product is carried out by MS/MS with an APCI source in positive mode.
The identification criteria for vitamin K are the retention time and the production of fragment 187 from the initial ion 451.
The IC50 values are evaluated by non-linear to linear regression from the equation of non-competitive inhibition:
v=(vmax/(l+(I/Ki)))*(S/(Km+S))
where v represents the initial rate, I the concentration of anticoagulant, Km the Michaelis-Menten constant, S the concentration of substrate (mM), Vmax the maximum rate of reaction and Ki the inhibition constant.

Row | Structure (SMILES) | IC50 [µM] | IC50 (microsomal liver fractions from sensitive rats, vitamin K epoxide substrate, 30 minutes at 37° C., pH 7.4, 1 mM dithiothreitol, read-out: IC50) [µM]
1 | CCCCCCCCCCc1c(O)c2ccccc2oc1=O [III] | 0.06 | –
2 | CCCCCCCCc1c(O)c2ccccc2oc1=O [II] | 0.15 | –
3 | CCCCCCCCCCCCc1c(O)c2ccccc2oc1=O [IV] | 0.05 | –
4 | CCCCCCCCCCCCCCCCCCCCc1c(O)c2ccccc2oc1=O [IX, reference compound] | – | > 0.5
5 | CCCCCCc1c(O)c2ccccc2oc1=O [VIII, reference compound] | > 0.2 | –
6 | CCCCCCCCCCCCCCCCCCc1c(O)c2ccccc2oc1=O [VII] | 0.06 | –
7 | CCCCCCCCCCCCCCCCc1c(O)c2ccccc2oc1=O [VI] | 0.04 | –
8 | CCCCCCCCCCCCCCc1c(O)c2ccccc2oc1=O [V] | 0.04 | –
